Key:
[1] = target: T1, TNKS2 (Homo sapiens, UniProt Q9H2K2); test: Modified TNKS2 Assay 2 (auto-parsylation, [3H]-NAD+ SPA); assay type: biochemical; conditions: 6 nM TNKS2, 96 well
T1 sequence (Q9H2K2 1-1166): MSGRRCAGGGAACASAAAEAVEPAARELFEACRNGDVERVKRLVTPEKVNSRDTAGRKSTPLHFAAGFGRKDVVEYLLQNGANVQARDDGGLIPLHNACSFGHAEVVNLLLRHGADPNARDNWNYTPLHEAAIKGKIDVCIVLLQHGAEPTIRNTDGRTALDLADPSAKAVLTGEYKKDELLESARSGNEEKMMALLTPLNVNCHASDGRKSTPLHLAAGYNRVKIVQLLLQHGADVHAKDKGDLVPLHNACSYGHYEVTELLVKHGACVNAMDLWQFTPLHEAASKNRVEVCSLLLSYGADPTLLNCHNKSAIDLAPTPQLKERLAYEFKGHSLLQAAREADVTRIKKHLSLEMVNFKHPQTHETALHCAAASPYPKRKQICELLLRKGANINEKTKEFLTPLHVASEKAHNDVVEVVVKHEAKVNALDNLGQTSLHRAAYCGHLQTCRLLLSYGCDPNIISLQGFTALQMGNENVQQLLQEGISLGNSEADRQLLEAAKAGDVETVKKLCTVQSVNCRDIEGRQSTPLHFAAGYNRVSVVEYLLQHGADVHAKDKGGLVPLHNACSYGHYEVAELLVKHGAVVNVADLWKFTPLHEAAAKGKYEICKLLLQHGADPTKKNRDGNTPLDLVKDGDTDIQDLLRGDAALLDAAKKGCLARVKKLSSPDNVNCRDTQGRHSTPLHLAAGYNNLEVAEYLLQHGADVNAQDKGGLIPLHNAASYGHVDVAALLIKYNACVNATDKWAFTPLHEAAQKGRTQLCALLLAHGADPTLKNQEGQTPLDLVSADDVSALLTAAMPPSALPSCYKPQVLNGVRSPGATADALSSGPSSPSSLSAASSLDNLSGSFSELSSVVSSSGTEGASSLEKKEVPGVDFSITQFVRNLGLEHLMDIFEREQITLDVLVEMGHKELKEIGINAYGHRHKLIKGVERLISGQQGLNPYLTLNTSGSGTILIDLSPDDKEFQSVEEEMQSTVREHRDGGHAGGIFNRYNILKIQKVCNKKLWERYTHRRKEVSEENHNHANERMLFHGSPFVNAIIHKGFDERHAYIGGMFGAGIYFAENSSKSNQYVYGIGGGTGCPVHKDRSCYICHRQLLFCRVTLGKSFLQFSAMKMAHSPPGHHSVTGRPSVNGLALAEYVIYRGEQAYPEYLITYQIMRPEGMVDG

[2] = system: wildtype Wnt signaling cascade; test: HEK293 TOP Assay (Super TopFlash luciferase reporter, Wnt-3a stimulated); assay type: cell-based; conditions: Homo sapiens, HEK293, 16 h
How it was run: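 Compounds (50 μM down to 15 nM, 3.16-fold steps, in CAFTY buffer pH 7.4, 2 mM Ca2+, 0.01% BSA) tested in parallel on TOP and FOP HEK293 reporter lines to define selective wildtype Wnt inhibition. Pathway driven by recombinant human Wnt-3a applied at 2500–5 ng/ml in two-fold dilutions.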

[3] = HEK293 TOP reporter cell line, Wnt-3a at EC50, 16 hours incubation, compound dilution series 50 μM to 15 nM
[4] = HEK293 TOP reporter cells, Wnt3a at EC50, 16 hours, luciferase

Row | Compound | IC50 [1] [µM] | IC50 [2, 3] [µM] | IC50 [2, 4] [µM]
1 | CNC(=O)c1nc[nH]c1C(=O)Nc1ccc(NC(=O)c2ccc(F)cc2)cc1 [Example 20, N^5-{4-[(4-fluorobenzoyl)amino]phenyl}-N^4-methyl-1H-imidazole-4,5-dicarboxamide] | > 10 | 11.2 | 3.35
2 | O=C(Nc1ccc(NC(=O)c2nc[nH]c2C(=O)NC(CO)CO)cc1)c1ccccc1Cl [Example 157, N^4-{4-[(2-chlorobenzoyl)amino]phenyl}-N^5-(1,3-dihydroxypropan-2-yl)-1H-imidazole-4,5-dicarboxamide] | 1.4 | 8.4 | 
3 | CNC(=O)c1nc[nH]c1C(=O)Nc1ccc(NC(=O)c2cc(OCCN3CCN(C)CC3)ccc2Cl)cc1 [Example 124, N^5-[4-({2-chloro-5-[2-(4-methylpiperazin-1-yl)ethoxy]benzoyl}amino)phenyl]-N^4-methyl-1H-imidazole-4,5-dicarboxamide] | > 10 | 50 | 
4 | CNC(=O)c1nc[nH]c1C(=O)Nc1ccc(NC(=O)c2cccc(Cl)c2Cl)cc1 [Example 1, N^5-{4-[(2,3-dichlorobenzoyl)amino]phenyl}-N^4-methyl-1H-imidazole-4,5-dicarboxamide] | 3.3 | 1.2 | 1.1
5 | CNC(=O)c1nc[nH]c1C(=O)Nc1ccc(NC(=O)c2ccc(OC(F)(F)F)cc2F)cc1 [Example 253, N^5-(4-{[2-fluoro-4-(trifluoromethoxy)benzoyl]amino}phenyl)-N^4-methyl-1H-imidazole-4,5-dicarboxamide] | > 10 | 12 | 

These reach a lower IC50 [1]. Values come first.

Row | IC50 [1] [µM] | IC50 [2, 3] [µM] | IC50 [2, 4] [µM] | Compound
6 | 0.91 | 0.73 | 0.73 | CNC(=O)c1ncoc1C(=O)Nc1ccc(NC(=O)c2ccc(F)cc2Cl)cc1 [Example 11, N^5-{4-[(2-chloro-4-fluorobenzoyl)amino]phenyl}-N^4-methyl-1,3-oxazole-4,5-dicarboxamide]
7 | 0.77 | 0.24 | 0.24 | CNC(=O)c1nc[nH]c1C(=O)Nc1ccc(NC(=O)c2ccc(F)cc2Cl)c(C)c1 [Example 5, N^5-{4-[(2-chloro-4-fluorobenzoyl)amino]-3-methylphenyl}-N^4-methyl-1H-imidazole-4,5-dicarboxamide]
8 | 0.43 | 0.75 |  | CNC(=O)c1nc[nH]c1C(=O)Nc1ccc(NC(=O)c2cnccc2Cl)cc1 [Example 254, N^5-(4-{[(4-chloropyridin-3-yl)carbonyl]amino}phenyl)-N^4-methyl-1H-imidazole-4,5-dicarboxamide]
9 | 0.11 | 0.32 |  | CC(C)CNC(=O)c1[nH]cnc1C(=O)Nc1ccc(NC(=O)c2ccc(F)cc2Cl)cc1 [Example 147, N^4-{4-[(2-chloro-4-fluorobenzoyl)amino]phenyl}-N^5-isobutyl-1H-imidazole-4,5-dicarboxamide]
10 | 0.11 | 0.58 |  | CN1CCN(CCNC(=O)c2[nH]cnc2C(=O)Nc2ccc(NC(=O)c3ccccc3Cl)cc2)CC1 [Example 160, N^4-{4-[(2-chlorobenzoyl)amino]phenyl}-N^5-[2-(4-methylpiperazin-1-yl)ethyl]-1H-imidazole-4,5-dicarboxamide]
11 | 0.05 | 0.27 |  | O=C(Nc1ccc(NC(=O)c2nc[nH]c2C(=O)NCCF)cc1)c1ccc(F)cc1Cl [Example 173, N^4-{4-[(2-chloro-4-fluorobenzoyl)amino]phenyl}-N^5-(2-fluoroethyl)-1H-imidazole-4,5-dicarboxamide]
12 | 0.01 | 0.9 |  | CCS(=N)(=O)c1ccc(C(=O)Nc2ccc(NC(=O)c3[nH]cnc3C(=O)NCCN3CCCCC3)cc2)c(Cl)c1 (stereo not shown) [Example 256, N^5-(4-{[2-chloro-4-(S-ethylsulfonimidoyl)benzoyl]amino}phenyl)-N^4-[2-(piperidin-1-yl)ethyl]-1H-imidazole-4,5-dicarboxamide]

Source: US9884063B2, “Amido-substituted azole compounds” (Bayer Pharma Aktiengesellschaft, priority 2014, dated 2018)
